Laboratory results reported in PubChem BioAssay AID624113 (National Center for Advancing Translational Sciences (NCATS), 2012).

System: mouse plasma stability, percent remaining
Test: qHTS Assay for Inhibitors of Bacillus subtilis Sfp phosphopantetheinyl transferase (PPTase): Mouse Plasma Stability
Settings: stronger effect = higher value
Excerpt: The covalent attachment of a phosphopantetheinyl (4'-PP) arm to a variety of synthases and other proteins is a key posttranslational protein modification. The 4'-PP is installed on the proteins post-translationally from coenzyme A (CoA) on a conserved serine residue by action of phosphopantetheinyl transferase (PPTase) enzymes. Phosphopantetheinylation is essential for synthase activity, and removal of the PPTase gene precludes natural product synthesis in microorganisms, or in the case of fatty acid biosynthesis, renders the organism unviable. PPTase enzymes belong to a distinct structural superfamily. Within bacteria, these enzymes are grouped into two classes based upon primary structure, the AcpS-Type and Sfp-Type PPTases.
Sfp-type PPTases, corresponding to an activator of surfactin production in Bacillus subtilis, are responsible for modifying type I polyketide and nonribosomal peptide synthases of prokaryotes. Sfp-type PPTases are responsible for the activation of a variety of pathogen-associated virulence factors. […]
5 uM of compound is incubated with mouse liver microsome; the reference compounds are verapamil and warfarin. Compounds are incubated and samples are analyzed with LC-MS/MS.

percent remaining: 100%
SMILES: COc1ccnc(NC(=S)N2CCN(c3ncc(C(F)(F)F)cc3Cl)CC2)c1
